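1) Cells in 96-well plates. 2) Compound, 48 h, 5 concentrations. 3) Linear interpolation between surrounding doses. 4) Unreached endpoint = highest concentration. At the GI50, growth is halved.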 Activity calls are given as the source filed them. No stated cut-off is given here; in the data, active = GI50 up to about 1.1 µM and inactive = higher.
How the values were obtained:
Experiment in all cases: DTP human tumour cell line panel, 48 h
DLD-1 = test system: DLD-1
DMS-114 = test system: DMS-114
HOP-18 = test system: HOP-18
Hs-578T = test system: Hs-578T
KM-20L2 = test system: KM-20L2
M19-MEL = test system: M19-MEL
RXF 631 = test system: RXF 631
SNB-78 = test system: SNB-78
XF498 = test system: XF498

| SMILES | GI50 (DLD-1) | GI50 (DMS-114) | GI50 (HOP-18) | GI50 (Hs-578T) | GI50 (KM-20L2) | GI50 (M19-MEL) | GI50 (RXF 631) | GI50 (SNB-78) | GI50 (XF498) |
| --- | --- | --- | --- | --- | --- | --- | --- | --- | --- |
| Cn1c2c(c3ccccc31)CCN(CCCCN1CCN(c3ccccc3)CC1)C2=O | 19.3 µM (inactive) | 22.1 µM (inactive) | > 31.6 µM (inactive) | 12.4 µM (inactive) | 4.29 µM (inactive) | 43.6 µM (inactive) | 9.66 µM (inactive) | > 100 µM (inactive) | 14.1 µM (inactive) |
| Cc1cc2oc(-c3ccccc3)c(C)c(=O)c2c2c1OC(C)(C)S2 | 99.1 µM (inactive) | 83.9 µM (inactive) | > 100 µM (inactive) | – | 55.5 µM (inactive) | > 100 µM (inactive) | > 100 µM (inactive) | – | > 100 µM (inactive) |
| CCCCC(C)/C=C/C(O)=C1\C(=O)O/C(=C\C(=O)O)C1=O (centres undefined) | – | > 100 µM (inactive) | > 100 µM (inactive) | – | > 100 µM (inactive) | – | > 100 µM (inactive) | > 100 µM (inactive) | > 100 µM (inactive) |
| COc1ccc2[nH]c3c(C)c4cc[n+](COC(=O)c5ccccc5)cc4c(C)c3c2c1 | – | 0.279 µM (active) | 0.0198 µM (active) | – | 0.282 µM (active) | 0.381 µM (active) | 0.165 µM (active) | 0.897 µM (active) | 1.48 µM (inactive) |
| CC(=O)OC1(C#N)CC2OC1C1C2N=NN1C(=O)OC(C)(C)C (centres undefined) | 20.4 µM (inactive) | 23.2 µM (inactive) | > 100 µM (inactive) | – | 55.8 µM (inactive) | 16.5 µM (inactive) | 50.6 µM (inactive) | 26.9 µM (inactive) | – |
| CCOc1ccc(NC(=O)C(=O)CC(=O)c2c[n+]([O-])c3cc(C)c(C)cc3[n+]2[O-])cc1 | – | > 100 µM (inactive) | > 100 µM (inactive) | – | > 100 µM (inactive) | > 100 µM (inactive) | > 100 µM (inactive) | > 100 µM (inactive) | > 100 µM (inactive) |
| CC(=O)OCC1OC(n2cc(F)c(=O)[nH]c2=O)C(OC(C)=O)C1OC(C)=O (centres undefined) | 15.4 µM (inactive) | 39.8 µM (inactive) | 38 µM (inactive) | > 59.3 µM (inactive) | 54.1 µM (inactive) | 4.07 µM (inactive) | 15.5 µM (inactive) | > 100 µM (inactive) | 4.57 µM (inactive) |
| O=C(NO)C(=O)Nc1ccc(Cl)cc1[N+](=O)[O-] | > 100 µM (inactive) | > 100 µM (inactive) | > 100 µM (inactive) | – | > 100 µM (inactive) | > 100 µM (inactive) | > 100 µM (inactive) | > 100 µM (inactive) | – |

Source: ChEMBL document CHEMBL1201862, “PubChem BioAssay data set” (2004)
